From patent US10414763B2 (CANCER RESEARCH TECHNOLOGY LIMITED, priority 2014, dated 2019)

Biological target: T1, full-length human PKCι (Homo sapiens, UniProt P41743)
T1 construct: Recombinant, full-length human PKCι expressed in Sf21 insect cells is also commercially available; purchased EMD Millipore; host or cells: Sf21 insect cells (baculovirus)
T1 sequence (P41743 1-596): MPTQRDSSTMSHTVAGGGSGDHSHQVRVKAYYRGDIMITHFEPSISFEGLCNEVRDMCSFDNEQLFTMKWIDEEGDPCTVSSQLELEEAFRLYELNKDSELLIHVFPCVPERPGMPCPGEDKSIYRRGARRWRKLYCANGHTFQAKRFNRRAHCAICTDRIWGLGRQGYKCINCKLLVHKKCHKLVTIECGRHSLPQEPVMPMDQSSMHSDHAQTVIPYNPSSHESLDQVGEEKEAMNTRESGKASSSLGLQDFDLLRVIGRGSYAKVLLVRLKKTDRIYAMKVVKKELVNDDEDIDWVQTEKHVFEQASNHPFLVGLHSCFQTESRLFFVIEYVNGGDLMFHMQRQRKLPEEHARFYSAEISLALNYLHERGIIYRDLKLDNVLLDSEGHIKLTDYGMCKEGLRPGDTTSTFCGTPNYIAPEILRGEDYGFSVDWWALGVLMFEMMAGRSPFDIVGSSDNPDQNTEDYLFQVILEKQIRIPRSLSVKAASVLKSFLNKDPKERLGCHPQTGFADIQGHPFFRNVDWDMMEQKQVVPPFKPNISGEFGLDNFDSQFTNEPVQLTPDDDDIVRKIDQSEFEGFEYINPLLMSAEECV
Test: PKCι IC50 IMAP fluorescence polarisation assay, full-length enzyme, 150 μM ATP
Assay type: biochemical
Settings: read-out: IC50 in IMAP assay against full length PKCi at 150 μM ATP
Description: Assays are based on the ability of PKCι to phosphorylate a commercially available peptide substrate in vitro. The peptide substrate is FAM-PKCε pseudopeptide derived peptide, and comprises the amino acid sequence 5FAM-ERMRPRKRQGSVRRRV-NH2. Recombinant, full-length human PKCι expressed in Sf21 insect cells is also commercially available. Recombinant, kinase-domain human PKCι is expressed and purified in-house.
The procedure below explains how dose response curves for inhibitors of PKCι are obtained. The screen described is for a 384 well format but the assay can be adapted to 1536 or other formats as required.
Compounds to be tested are dissolved in 100% DMSO. Compounds are diluted as required to give a final concentration of 4% DMSO (v/v) in the assay. 1 μl is plated into 384 well black low-binding flat bottomed assay plates which are used immediately. Dilutions and additions of compound to assay plates are carried out using Matrix WellMate® and Matrix PlateMate® Plus liquid handling systems.
On the day of the screen PKCι/substrate working solution, and ATP working solution, are prepared in buffer containing 20 mM tris-HCl pH7.5, 10 mM MgCl2, 0.01% Triton X100, 250 μM EGTA and 1 mM DTT. The final concentration of PKCι used varies depending on the batch of protein but is typically 15 pM. The final concentration of peptide substrate in the assay is 100 nM. ATP is used at a final concentration of 150 μM or 25 μM in the assays containing full-length or kinase-domain PKCι respectively, which corresponds to five times or equal to the KM^APP for ATP for each enzyme, respectively. The final buffer concentration in the assay is 18 mM tris-HCl pH7.5, 9 mM MgCl2, 0.009% Triton X100, 225 μM EGTA and 0.9 mM DTT. Relevant controls are included, namely no compound and no enzyme. 5 μl PKCι/substrate working solution at 30 pM and 200 nM, respectively, is added to the wells, followed by 4 μl ATP working solution at 375 μM or 62.5 μM for full-length or kinase-domain PKCι respectively, using a 16 channel Matrix pipette. The reaction is allowed to incubate for 60 minutes at room temperature, before the reaction is stopped and developed by the addition of 20 μl IMAP™ development reagent (Molecular Devices). IMAP development reagent consists of 0.25% (v/v) IMAP progressive binding reagent, 17% (v/v) IMAP progressive binding buffer A and 3% (v/v) IMAP progressive binding buffer B. The plates are then incubated for 2 hours at room temperature before being read using an appropriate plate reader, for example a Molecular Devices HT Analyst or a BMG Pherastar. Plates are read using a fluorescence polarisation protocol with excitation at 485 nm and emission at 530 nm, and dichroic mirror at 505 nm.
Percentage inhibition values are calculated from fluorescence polarisation values, using the no compound and no enzyme control values as 0% and 100% inhibition, respectively. IC50 determination is performed with ExcelFit software (IDBS) using curve fit 205. Z′ factors are determined for each plate tested and are all above 0.5.
Alternatively, compounds were tested for their ability to inhibit the kinase activity of recombinant human baculovirus-expressed PKCiota using the immobilized metal-ion affinity particle (IMAP®) fluorescence polarization detection system (Molecular Devices, Sunnyvale, Calif.). PKCiota/IMAP® substrate mixture (2×) was prepared in 1×IMAP assay buffer (Molecular Devices) containing 1 mM DTT so that the final assay concentrations were 15 pM PKCiota (EMD Millipore, Billerica, Mass.) and 100 nM 5-fluorescein-amidite (FAM)-PKC ? -pseudosubstrate (5-FAM-ERMRPRKRQGSVRRRV-NH2) (Molecular Devices). The 2× working solution was added at 5 μL/well into a 384-well black, non-binding, flat bottom assay plate (Corning, Corning, N.Y.). […]

Compound | IC50 [nM]
OC1CNCCC(Nc2nc(-c3ccnc4[nH]c5ccccc5c34)nc3cncc(C4CCC4)c23)C1 (racemic) [Example 231, Trans- or cis-(±)-5-[5-Cyclobutyl-2-(9H-pyrido[2,3-b]indol-4-yl)-pyrido[3,4-d]pyrimidin-4-ylamino]-azepan-3-ol] | < 100
CC1(C)CNCCC1Nc1nc(-c2ccnc(Nc3ncn(-c4ccccc4)n3)c2)nc2cncc(C3CC3)c12 (racemic) [Example 233, rac-{5-Cyclopropyl-2-[2-(1-phenyl-1H-1,2,4-triazol-3-ylamino)-pyridin-4-yl]-pyrido[3,4-d]pyrimidin-4-yl}-(3,3-dimethyl-piperidin-4-yl)-amine] | < 100
CN(c1nc(-c2ccnc(Nc3ncn(-c4ccccc4)n3)c2)nc2cncc(C3CC3)c12)C1CCNCC1(C)C (racemic) [Example 234, rac-{5-Cyclopropyl-2-[2-(1-phenyl-1H-1,2,4-triazol-3-ylamino)-pyridin-4-yl]-pyrido[3,4-d]pyrimidin-4-yl}-(3,3-dimethyl-piperidin-4-yl)-methyl-amine] | < 100
CC1(C)CNCCC1Nc1nc(-c2ccnc(Nc3ncn(Cc4ccccc4)n3)c2)nc2cncc(C3CC3)c12 (racemic) [Example 237, rac-{2-[2-(1-Benzyl-1H-1,2,4-triazol-3-ylamino)-pyridin-4-yl]-5-cyclopropyl-pyrido[3,4-d]pyrimidin-4-yl}-(3,3-dimethyl-piperidin-4-yl)-amine] | < 100
CN(c1nc(-c2ccnc(Nc3ncn(Cc4ccccc4)n3)c2)nc2cncc(C3CC3)c12)C1CCNCC1(C)C (racemic) [Example 238, rac-{2-[2-(1-Benzyl-1H-1,2,4-triazol-3-ylamino)-pyridin-4-yl]-5-cyclopropyl-pyrido[3,4-d]pyrimidin-4-yl}-(3,3-dimethyl-piperidin-4-yl)-methyl-amine] | < 100
O[C@]12CCN(c3nc(-c4ccnc(Nc5ncn(Cc6ccccc6)n5)c4)nc4cncc(C5CC5)c34)[C@H]1CCNC2 (racemic) [Example 240, rac-(3aS,7aS)-1-{2-[2-(1-Benzyl-1H-1,2,4-triazol-3-ylamino)-pyridin-4-yl]-5-cyclopropyl-pyrido[3,4-d]pyrimidin-4-yl}-octahydro-pyrrolo[3,2-c]pyridin-3a-ol] | < 100
C[C@@]1(O)CNCC[C@H]1Nc1nc(-c2ccnc3[nH]c4ccccc4c23)nc2cncc(C3CCC3)c12 (racemic) [Example 246] | < 100
C[C@@]1(O)CNCC[C@H]1Nc1nc(-c2ccnc3[nH]c4ccccc4c23)nc2cncc(C3CC3)c12 (racemic) [Example 247, rac-(3R,4R)-4-[5-Cyclopropyl-2-(9H-pyrido[2,3-b]indol-4-yl)-pyrido[3,4-d]pyrimidin-4-ylamino]-3-methyl-piperidin-3-ol] | < 100
COc1cncc2nc(-c3ccnc(Nc4nc(F)ccc4F)c3)nc(NC3CCNCC3(C)C)c12 (racemic) [Example 261, rac-2-[2-[(3,6-difluoro-2-pyridyl)amino]-4-pyridyl]-N-(3,3-dimethyl-4-piperidyl)-5-methoxy-pyrido[3,4-d]pyrimidin-4-amine] | < 100
C[C@H]1CNCC[C@@H]1Nc1nc(-c2ccnc3[nH]c(C(F)(F)F)cc23)nc2cncc(C3CCC3)c12 (racemic) [Example 262] | < 100
C[C@@H]1CNCC[C@@H]1Nc1nc(-c2ccnc3[nH]c(C(F)(F)F)cc23)nc2cncc(C3CCC3)c12 (racemic) [Example 263] | < 100
O[C@H]1CNCC[C@H]1Nc1nc(-c2ccnc(Nc3ccc4ccccc4n3)c2)nc2cncc(C3CCC3)c12 (racemic) [Example 270, rac-(3S,4R)-4-{5-Cyclobutyl-2-[2-(quinolin-2-ylamino)-pyridin-4-yl]-pyrido[3,4-d]pyrimidin-4-ylamino}-piperidin-3-ol] | < 100
O[C@@H]1CNCC[C@H]1Nc1nc(-c2ccnc(Nc3ccc4ccccc4n3)c2)nc2cncc(C3CCC3)c12 (racemic) [Example 273, rac-(3R,4R)-4-{5-Cyclobutyl-2-[2-(quinolin-2-ylamino)-pyridin-4-yl]-pyrido[3,4-d]pyrimidin-4-ylamino}-piperidin-3-ol] | < 100
C[C@@H]1CNCC[C@@H]1Nc1nc(-c2ccnc(Nc3nc4ccccn4n3)c2)nc2cncc(C3CCC3)c12 (racemic) [Example 276, {5-Cyclobutyl-2-[2-([1,2,4]triazolo[1,5-a]pyridin-2-ylamino)-pyridin-4-yl]-pyrido[3,4-d]pyrimidin-4-yl}-(rac-(3R,4S)-3-methyl-piperidin-4-yl)-amine] | < 100
C[C@@H]1CNCC[C@H]1Nc1nc(-c2ccnc(Nc3nc4ccccn4n3)c2)nc2cncc(C3CCC3)c12 (racemic) [Example 277, {5-Cyclobutyl-2-[2-([1,2,4]triazolo[1,5-a]pyridin-2-ylamino)-pyridin-4-yl]-pyrido[3,4-d]pyrimidin-4-yl}-(rac-(3R,4R)-3-methyl-piperidin-4-yl)-amine] | < 100
C[C@@H]1CNCC[C@@H]1Nc1nc(-c2ccnc(Nc3ncccc3F)c2)nc2cncc(C3CCC3)c12 (racemic) [Example 282, {5-Cyclobutyl-2-[2-(3-fluoro-pyridin-2-ylamino)-pyridin-4-yl]-pyrido[3,4-d]pyrimidin-4-yl}-(rac-(3R,4S)-3-methyl-piperidin-4-yl)-amine] | < 100
C[C@@H]1CNCC[C@@H]1Nc1nc(-c2ccnc(Nc3ncc(F)cc3F)c2)nc2cncc(C3CCC3)c12 (racemic) [Example 283, {5-Cyclobutyl-2-[2-(3,5-difluoro-pyridin-2-ylamino)-pyridin-4-yl]-pyrido[3,4-d]pyrimidin-4-yl}-(rac-(3R,4S)-3-methyl-piperidin-4-yl)-amine] | < 100
O[C@H]1CNC[C@@H]1Nc1nc(-c2ccnc(Nc3nc(F)ccc3F)c2)nc2cncc(C3CCC3)c12 (racemic) [Example 285, rac-(3S,4S)-4-{5-Cyclobutyl-2-[2-(3,6-difluoro-pyridin-2-ylamino)-pyridin-4-yl]-pyrido[3,4-d]pyrimidin-4-ylamino}-pyrrolidin-3-ol] | < 100
O[C@@H]1CNCC[C@H]1Nc1nc(-c2ccnc(Nc3ncccc3F)c2)nc2cncc(C3CCC3)c12 (racemic) [Example 286, rac-(3R,4R)-4-{5-Cyclobutyl-2-[2-(3-fluoro-pyridin-2-ylamino)-pyridin-4-yl]-pyrido[3,4-d]pyrimidin-4-ylamino}-piperidin-3-ol] | < 100
O[C@@H]1CNCC[C@H]1Nc1nc(-c2ccnc(Nc3ncc(F)cc3F)c2)nc2cncc(C3CCC3)c12 (racemic) [Example 287, rac-(3R,4R)-4-{5-Cyclobutyl-2-[2-(3,5-difluoro-pyridin-2-ylamino)-pyridin-4-yl]-pyrido[3,4-d]pyrimidin-4-ylamino}-piperidin-3-ol] | < 100
